Laboratory results taken from US20260374766A1, “METHODS FOR TREATING CANCER” (Antares Therapeutics, Inc., priority 2022, published 2026).
Read-outs that look alike come from different tables or passages of the source.

How the values were obtained:
[1] = molecular target: p53 Y220C (Homo sapiens, UniProt P04637, Y220C); assay: Luciferase Reporter Assay (Luc), p53 response element, NClH1299 cells with inducible p53 Y220C; type: cell-based; details: 6 hour; for AC50: read-out: Luc P53 Y220C AC50
Procedure: Luciferase Reporter Assay Protocol
The cells were then used for p53 reporter assay. 5,000 cells were seeded in each well of 384 plate and cultured in 0.5 ug/mL doxycycline (D3072; Sigma) containing medium for 24 hours before compound treatment. After 6 hour of compound treatment, equal volume of One-Glo reagent (E6110; Promega) was added to each well and the plate was incubated for 5 minutes with shaking at room temperature. The luciferase activity was immediately measured with PheraStar microplate reader.

[2] = tested on: H1299 p53 R273H; assay: Cell Proliferation Assay (CellTiter-Glo, CTG), H1299 p53 R273H (NClH1299-inducible p53 R273H); type: cell-based; details: Homo sapiens, NCI-H1299, 120 h, 5 days
Procedure: (§1) Inducible p53 Y220C and R273H constructs (Tet-One inducible expression system; Takara) were stably expressed in NClH1299 cells by lentiviral transduction. NUGC3, A549, BxPC3, T3M4, HuH7, HCC2935, MFE296, NClH1299, NClH1299-inducible p53 Y220C, and NClH1299-inducible p53 R273H cell lines were used for cell proliferation assay. 250-500 cells were seeded in each well of 384 plate and then compounds were dispensed into each well using Echo or Tecan. After 5 days of incubation, equal volume of CellTiter-Glo reagent (G7570; Promega) was added into each well and the plate was incubated at room temperature for 10 minutes with shaking. The luminescent signal was measured by PheraStar microplate reader and IC50 was calculated.

[3] = tested on: NUGC3 p53 Y220C; assay: Cell Proliferation Assay (CellTiter-Glo, CTG), NUGC3 p53 Y220C; type: cell-based; details: Homo sapiens, NUGC-3, 120 h, 5 days
Procedure: as §1

[4] = tested on: H1299 p53 Y220C; assay: Cell Proliferation Assay (CellTiter-Glo, CTG), H1299 p53 Y220C (NClH1299-inducible p53 Y220C); type: cell-based; details: Homo sapiens, NCI-H1299, 120 h, 5 days
Procedure: as §1

[5] = molecular target: T1, p53 Y220C mutant protein (amino acid residues 94-293) (Homo sapiens, UniProt P04637, Y220C); assay: Surface Plasmon Resonance (SPR) assay, Kd_kinetic; type: binding; details: SPR, p53 Y220C, read-out: SPR P53 Y220C KD kinetic
T1 construct: p53 Y220C mutant protein (amino acid residues 94-293)
T1 sequence (P04637 94-293, stated change not applied): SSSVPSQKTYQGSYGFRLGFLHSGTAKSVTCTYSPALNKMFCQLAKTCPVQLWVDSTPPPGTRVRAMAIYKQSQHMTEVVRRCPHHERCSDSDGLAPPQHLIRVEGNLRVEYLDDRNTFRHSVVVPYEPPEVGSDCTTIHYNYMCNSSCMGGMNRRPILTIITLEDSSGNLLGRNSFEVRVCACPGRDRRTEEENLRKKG
Procedure: Surface Plasmon Resonance (SPR) Assay Protocol
SPR experiments were performed on a Biacore 8K instrument. […] The running buffer contained 50 mM Tris, pH 7.5, 100 mM NaCl, 1 mM DTT, 0.01% Brij35, 0.05% Tween-20 and 1% DMSO. The assay temperature was maintained at 16 or 20 °C and data were fit into the 1:1 binding model using the Biacore Insight Evaluation software.

[6] = Emax, luciferase reporter, NClH1299 inducible p53 Y220C
[7] = NClH1299-inducible p53 R273H cells, CellTiter-Glo
[8] = NClH1299-inducible p53 Y220C cells, CellTiter-Glo
[9] = AC50, NClH1299 cells with inducible p53 Y220C
[10] = Emax, NClH1299 cells with inducible p53 Y220C, 10 uM tool compound as positive control
[11] = NClH1299-inducible p53 R273H cells
[12] = NClH1299-inducible p53 Y220C cells
[13] = luciferase reporter, NClH1299 inducible p53 Y220C, 10 uM tool compound as positive control
[14] = luciferase reporter, NClH1299 inducible p53 Y220C

Emax [1, 13] | AC50 [1, 14] | IC50 ([2]; CellTiter-Glo, H1299 p53 R273H) | Kd ([5]; kinetic KD) | IC50 ([4]; CellTiter-Glo, H1299 p53 Y220C) | Structure (SMILES) | IC50 ([3]; CellTiter-Glo, NUGC3 p53 Y220C) | also measured
 |  |  |  |  | CNC(=O)c1ccc(NCC#Cc2nc3c(N[C@@H]4C[C@H]5COC[C@H](N5)[C@@H]4F)cccn3c2SC(F)(F)F)c(OC)c1 (relative stereo) [Example 251, rel-4-{[3-(8-{[(1R,5R,6S,7S)-6-fluoro-3-oxa-9-azabicyclo [3.3.1]nonan-7-yl]amino}-3-[(trifluoromethyl)sulfanyl]imidazo[1,2-a]pyridin-2-yl)prop-2-yn-1-yl]amino}-3-methoxy-N-methylbenzamide] |  | Emax [1, 6]: 80 to 90%; IC50 [2, 7]: ≥ 10000 nM; IC50 ([3]; NUGC3 cells, CellTiter-Glo): 1500 to 3000 nM; IC50 [4, 8]: 1500 to 3000 nM
 |  |  |  |  | CNC(=O)c1ccc(NCC#Cc2nc3c(NC4CCS(=O)(=O)C4)cccn3c2SC(F)(F)F)c(OC)c1 (single isomer, unassigned) [Example 322] |  | AC50 ([1]; AC50, luciferase reporter, NClH1299 inducible p53 Y220C): 750 to 1500 nM; Emax [1, 6]: > 90%; IC50 [2, 7]: ≥ 10000 nM; Kd [5]: 10 to 100 nM; IC50 ([3]; NUGC3 cells, CellTiter-Glo): 750 to 1500 nM; IC50 [4, 8]: 750 to 1500 nM
 |  |  |  |  | CNC(=O)c1ccc(OC)c(NCC#Cc2cc3c(N[C@@H]4CCN(CC(C)O)C[C@@H]4F)cccn3c2SC(F)(F)F)c1 (single isomer, unassigned) [Example 480, 3-{[3-(8-{[(3S,4R)-3-fluoro-1-[(2R*)-2-hydroxypropyl]piperidin-4-yl]amino}-3-[(trifluoromethyl)sulfanyl]indolizin-2-yl)prop-2-yn-1-yl]amino}-4-methoxy-N-methylbenzamide] |  | AC50 [1, 9]: < 750 nM; Emax [1, 10]: > 90%; IC50 [2, 11]: 8000 to 10000 nM; Kd [5]: < 10 nM; IC50 ([3]; NUGC3 cells): < 750 nM; IC50 [4, 12]: < 750 nM
 |  |  |  |  | CNC(=O)c1cc(NCC#Cc2cc3c(N[C@H]4CCN(C)C[C@H]4F)cccn3c2SC(F)(F)F)c2nccn2c1 (stereo in doubt) [Example 503, 8-{[3-(8-{[(3R,4S)-3-fluoro-1-methylpiperidin-4-yl]amino}-3-[(trifluoromethyl)sulfanyl]indolizin-2-yl)prop-2-yn-1-yl]amino}-N-methylimidazo[1,2-a]pyridine-6-carboxamide] |  | AC50 [1, 9]: < 750 nM; Emax [1, 10]: > 90%; IC50 [2, 11]: 5000 to 8000 nM; Kd [5]: < 10 nM; IC50 ([3]; NUGC3 cells): < 750 nM; IC50 [4, 12]: < 750 nM
80 to 90% | < 750 nM | ≥ 10000 nM | < 10 nM | < 750 nM | CNC(=O)c1cc(OC)c(NCC#Cc2nc3c(N[C@@H]4CCN(C)C[C@@H]4F)cccn3c2SC(F)(F)F)cn1 [Example 120] | < 750 nM | 
80 to 90% | < 750 nM | 5000 to 8000 nM | < 10 nM | < 750 nM | CNS(=O)(=O)c1ccc(OC)c(NCC#Cc2cc3c(N[C@@H]4CCN(C)C[C@@H]4F)cccn3c2SC(F)(F)F)c1 [Example 132, 3-{[3-(8-{[(3S,4R)-3-fluoro-1-methylpiperidin-4-yl]amino}-3-[(trifluoromethyl)sulfanyl]indolizin-2-yl)prop-2-yn-1-yl]amino}-4-methoxy-N-methylbenzenesulfonamide] | < 750 nM | 
> 90% | > 3000 nM | 5000 to 8000 nM | 10 to 100 nM | > 3000 nM | CNC(=O)c1ccc(N[C@H](C)C#Cc2nc3c(N[C@@H]4CCN(C)C[C@@H]4F)cccn3c2SC(F)(F)F)c(OC)c1 [Example 133] | > 3000 nM | 
70 to 80% | > 3000 nM | 5000 to 8000 nM | 10 to 100 nM | > 3000 nM | CNC(=O)c1ccc(N[C@@H](C)C#Cc2nc3c(N[C@@H]4CCN(C)C[C@@H]4F)cccn3c2SC(F)(F)F)c(OC)c1 [Example 134] | > 3000 nM | 
< 70% | > 3000 nM | ≥ 10000 nM | 10 to 100 nM | > 3000 nM | CNC(=O)c1ccc(NCC#Cc2nc3c(N[C@@H]4C[C@H]5COC[C@@H]([C@@H]4F)N5C)cccn3c2SC(F)(F)F)c(OC)c1 [Example 137] | > 3000 nM | 
< 70% | > 3000 nM | ≥ 10000 nM |  | > 3000 nM | CNC(=O)c1ccnc(NCC#Cc2nc3c(N[C@@H]4CCN(C)C[C@@H]4F)cccn3c2SC(F)(F)F)c1 [Example 150] | > 3000 nM | 
80 to 90% | < 750 nM | ≥ 10000 nM | < 10 nM |  | CNC(=O)c1cnc(OC)c(NCC#Cc2nc3c(N[C@@H]4CCN(C)C[C@@H]4F)cccn3c2SC(F)(F)F)n1 [Example 157] |  | 
